Measurements from ChEMBL document CHEMBL1155691, “Novel extracellular diterpenoids with biological activity from the cyanobacterium Nostoc commune” (2000).
Values after ≈ are worked out from the molar mass of the structure shown.

Assays:
Type in all cases: functional
[1] = system: Staphylococcus epidermidis; test: Antimicrobial activity against Staphylococcus epidermidis ATCC 12228
Bacillus cereus = test: Antimicrobial activity against Bacillus cereus ATCC 10702
Escherichia coli = test: Antimicrobial activity against Escherichia coli ATCC 25922
KB = test: Cytotoxicity against human KB cells
Biomphalaria glabrata = test: Antimolluscicidal activity against Biomphalaria glabrata
Caco-2 = test: Cytotoxicity against human Caco-2 cells

Compound	MIC [1] [µg/mL]	MIC (Bacillus cereus) [µg/mL]	MIC (Escherichia coli) [µg/mL]	MIC (KB) [µg/mL]	MIC (Biomphalaria glabrata) [µg/mL]	MIC (Caco-2) [µg/mL]
O=C(N[C@H](CO)[C@H](O)c1ccc([N+](=O)[O-])cc1)C(Cl)Cl [CHLORAMPHENICOL]	4 (≈ 12.4 µM)	8 (≈ 24.8 µM)				
C[C@@H]1CC[C@@]2(C)[C@@H](CC[C@]3(C)[C@@H]2CC[C@@]3(C)CO)[C@]1(C)Cc1cc(C(=O)O)ccc1O [COMNASTIN A]	16 (≈ 37.3 µM)	32 (≈ 74.7 µM)	128 (≈ 299 µM)			
C[C@@H]1CC[C@@]2(C)[C@@H](CC[C@]3(C)[C@@H]2CC[C@@]3(C)C=O)[C@]1(C)Cc1cc(C(=O)O)ccc1O [COMNASTIN B]	16 (≈ 37.5 µM)	32 (≈ 75 µM)	128 (≈ 300 µM)	0.4 (≈ 0.938 µM)	20 (≈ 46.9 µM)	0.18 (≈ 0.422 µM)
C[C@@H]1CC[C@@]2(C)[C@@H](CC[C@]3(C)[C@@H]2CC[C@@]3(C)C(=O)O)[C@]1(C)Cc1cc(C(=O)O)ccc1O [COMNASTIN C]	16 (≈ 36.2 µM)	32 (≈ 72.3 µM)	64 (≈ 145 µM)			
COC(OC)[C@]1(C)CC[C@@H]2[C@@]3(C)CC[C@@H](C)[C@@](C)(Cc4cc(C(=O)O)ccc4O)[C@@H]3CC[C@]21C [COMNASTIN D]	32 (≈ 67.7 µM)	16 (≈ 33.9 µM)	128 (≈ 271 µM)			
CC(=O)[C@@H]1CC[C@@H]2[C@@]3(C)CC[C@@H](C)[C@@](C)(Cc4cc(C(=O)O)ccc4O)[C@@H]3CC[C@]21C [COMNASTIN E]	4 (≈ 9.38 µM)	128 (≈ 300 µM)				
COc1cc([C@@H]2c3cc4c(cc3[C@H](O)[C@H]3COC(=O)[C@H]23)OCO4)cc(OC)c1OC [PODOFILOX]				0.01 (≈ 0.0241 µM)		0.02 (≈ 0.0483 µM)
CN(C)[C@@H]1C(O)=C(C(N)=O)C(=O)[C@@]2(O)C(O)=C3C(=O)c4c(O)cccc4[C@@](C)(O)[C@H]3C[C@@H]12 [TETRACYCLINE]			64 (≈ 144 µM)			
